From US8486962B2, “Antifungal agents” (F2G Ltd., priority 2005, dated 2013)
≈ marks a conversion by molar mass, not a printed value.

Key:
Type in all cases: cell-based
Aspergillus flavus = test: MIC, YAG medium, Aspergillus flavus; conditions: Aspergillus flavus; YAG medium; read-out: MIC A Flavus 01
Protocol: (§1) Measurement of Minimum Inhibitory Concentrations (MICs)
(§2) Between 1 and 5 mgs of compound were accurately weighed out into a sterile Eppendorf tube. The compound was dissolved in DMSO to give a solution containing 5 mg/ml. Tubes were stored at −20° C. until required.
(§3) On the day of testing thawed solutions were vortex mixed to ensure homogeneity. 30 μl of solution was removed and added to 570 μl of sterile water in a separate sterile Eppendorf. The thoroughly mixed solution was used to prepare a series of doubling dilutions in water, in a deep well plate. Eleven replicate plates were prepared using a Minitrak by aspirating 20 μl from each well into eleven clear polystyrene 96 well plates.
(§4) Spores of Aspergillus spp (Aspergillus fumigatus, Aspergillus terreus, Aspergillus niger and Aspergillus flavus) were harvested from cultures grown on Sabarauds agar for 5 days, and resuspended in PBS/Tween 80 to approx 1×10^7 cfu/ml Other filamentous fungi (Fusarium solani, Scedosporium spp., Trichophyton spp., Absidia corymbifera), were grown on Sabarauds agar for 2-10 days and spores/hyphae resuspended in PBS/Tween to give approx 1×10^7 cfU/ml. Candida species (Candida albicans, Candida glabrata, Candida krusei, Candida parapsilosis and Candida tropicalis) were grown on Sabarauds agar, cells were harvested from the agar using a sterile loop and resuspended in PBS/Tween 80 to approx 1×10^6 cfu/ml. Each organism suspension was diluted in RPMI medium, containing 2% glucose and 0.135M MOPS buffer (pH7.0) to 2×10^4 cfu/ml for Aspergillus spp and other filamentous fungi and 2×10^3 cfu/ml for yeast. 80 μl of an organism suspension was added to each well of the plate containing drug dilutions.
(§5) This produced MIC plates with a drug range 50-0.05 mg/L and organism inocula of 1-2×10^4 cfu/ml for Aspergillus spp and other filamentous fungi and 1-2×10^3 cfu/ml for yeasts. All plates were incubated for 24-48 hrs at 35° C. Growth was assessed by monitoring the optical density at 485 nm for each well. The MIC of a compound is the lowest drug concentration that inhibits growth of an organism by >80% compared with a drug free control. MICs are recorded as mg/L. Other growth media can be used for susceptibility testing, and the activity of the described compounds can also be assessed in a medium comprising, 1% glucose, 1% ammonium chloride and 0.5% yeast extract (YAG medium). To perform MIC tests in this medium, dilutions of compounds are prepared in microtitre plates as described above. Fungal strains to be tested are grown and harvested in an identical manner to that described above, each organism suspension is then diluted in YAG medium to 2×10^4 cfu/ml for Aspergillus spp and other filamentous fungi and 2×10^3 cfu/ml for yeast. 80 μl of an organism suspension was added to each well of the plate containing drug dilutions. This produced MIC plates with a drug range 50-0.05 mg/L and organism inocula of 1-2×10^4 cfu/ml for Aspergillus spp and other filamentous fungi and 1-2×10^3 cfu/ml for yeasts. All plates were incubated for 24 hrs at 35° C. Growth was assessed by monitoring the optical density at 485 nm for each well. The MIC of a compound is the lowest drug concentration that inhibits growth of an organism by >70% compared with a drug free control. MICs are recorded as mg/L. In cases where the MIC of an organism is […]0.05 mg/L the MIC is repeated using a concentration range of 0.5-0.0005 mg/L. MIC tests in YAG medium have more clear-cut endpoints and have slightly lower MICS than those performed in RPMI medium.
(§6) The following organisms were tested: Aspergillus fumigatus AF293 and Aspergillus fumigatus AF210, Aspergillus niger, Aspergillus terreus, Aspergillus favus, Candida albicans, Candida krusei, Candida tropicalis, Candida glabrata, Candida parapsilosis, Trichophyton rubrum, Trichophyton mentagrophytes, Scedosporium prolificans, Scedosporium apiospermum, Absidia corymbifera, Fusarium solani.

Aspergillus terreus = test: MIC, YAG medium, Aspergillus terreus; conditions: Aspergillus terreus; YAG medium; read-out: MIC A Terreus 4
Protocol: as §1, §2, §3, §4, §5, §6

Aspergillus niger = test: MIC, YAG medium, Aspergillus niger; conditions: Aspergillus niger; YAG medium; read-out: MIC A Niger 1
Protocol: as §1, §2, §3, §4, §5, §6

[1] = tested on: Aspergillus fumigatus AF293; test: MIC, YAG medium, Aspergillus fumigatus AF293; conditions: Aspergillus fumigatus, AF293; YAG medium; read-out: MIC A Fum. 293
Protocol: as §1, §2, §3, §4, §5, §6

[2] = tested on: Aspergillus fumigatus AF210; test: MIC, YAG medium, Aspergillus fumigatus AF210; conditions: Aspergillus fumigatus, AF210; YAG medium; read-out: MIC A Fum. 210
Protocol: as §1, §2, §3, §4, §5, §6

Row | SMILES | MIC (Aspergillus flavus) | MIC (Aspergillus terreus) | MIC (Aspergillus niger) | MIC [1] | MIC [2]
1 | O=C(Nc1ccccc1F)C(=O)c1c(-c2cccnc2)cc2ccccn12 [Example 211, N-(2-Fluoro-phenyl)-2-oxo-2-(2-pyridin-3-yl-indolizin-3-yl)-acetamide] | 0.4 µg/mL (≈ 1.11 µM) | 0.2 µg/mL (≈ 0.557 µM) | 1.6 µg/mL (≈ 4.45 µM) | 6.25 µg/mL (≈ 17.4 µM) | 6.25 µg/mL (≈ 17.4 µM)
2 | Cc1ccccc1NC(=O)C(=O)c1c(-c2cccnc2)cc2ccccn12 [Example 213, 2-Oxo-2-(2-pyridin-3-yl-indolizin-3-yl)-N-o-tolyl-acetamide] | 0.4 µg/mL (≈ 1.13 µM) | 0.8 µg/mL (≈ 2.25 µM) | 1.6 µg/mL (≈ 4.5 µM) | 6.25 µg/mL (≈ 17.6 µM) | 6.25 µg/mL (≈ 17.6 µM)
3 | CC(=O)c1ccc(NC(=O)C(=O)c2c(-c3cccnc3)cc3ccccn23)cc1 [Example 217, N-(4-Acetyl-phenyl)-2-oxo-2-(2-pyridin-3-yl-indolizin-3-yl)-acetamide] | 0.8 µg/mL (≈ 2.09 µM) | 3.1 µg/mL (≈ 8.09 µM) | > 50 µg/mL | > 50 µg/mL | > 50 µg/mL
4 | O=C(C(=O)N1CCc2ccccc21)c1c(-c2ccccc2)cc2ccccn12 [Example 218, 1-(2,3-Dihydro-indol-1-yl)-2-(2-phenyl-indolizin-3-yl)-ethane-1,2-dione] | > 50 µg/mL | > 50 µg/mL | 0.4 µg/mL (≈ 1.09 µM) | > 50 µg/mL | > 50 µg/mL
5 | CS(=O)(=O)Nc1ccc(NC(=O)C(=O)c2c(-c3ccccc3)cc3ccccn23)cc1 [Example 219, N-(4-Methanesulfonylamino-phenyl)-2-oxo-2-(2-phenyl-indolizin-3-yl)-acetamide] | > 50 µg/mL | 6.25 µg/mL (≈ 14.4 µM) | 3.1 µg/mL (≈ 7.15 µM) | 12.5 µg/mL (≈ 28.8 µM) | 50 µg/mL (≈ 115 µM)

The next compounds have a lower MIC (Aspergillus flavus) than those just listed; values first:

Row | MIC (Aspergillus flavus) | MIC (Aspergillus terreus) | MIC (Aspergillus niger) | MIC [1] | MIC [2] | SMILES
6 | 0.1 µg/mL (≈ 0.266 µM) | 0.05 µg/mL (≈ 0.133 µM) | 0.05 µg/mL (≈ 0.133 µM) | > 50 µg/mL | > 50 µg/mL | O=C(Nc1ccc(F)cc1)C(=O)c1c(-c2ccc(F)cc2)cc2ccccn12 [Example 209, N-(4-Fluoro-phenyl)-2-[2-(4-fluoro-phenyl)-indolizin-3-yl]-2-oxo-acetamide]
7 | 0.05 µg/mL (≈ 0.127 µM) | 0.05 µg/mL (≈ 0.127 µM) | 0.05 µg/mL (≈ 0.127 µM) | > 50 µg/mL | > 50 µg/mL | O=C(Nc1ccc(Cl)cc1)C(=O)c1c(-c2ccc(F)cc2)cc2ccccn12 [Example 210, N-(4-Chloro-phenyl)-2-[2-(4-fluoro-phenyl)-indolizin-3-yl]-2-oxo-acetamide]
8 | 0.1 µg/mL (≈ 0.238 µM) | 0.1 µg/mL (≈ 0.238 µM) | 0.4 µg/mL (≈ 0.952 µM) | 0.8 µg/mL (≈ 1.9 µM) | 0.8 µg/mL (≈ 1.9 µM) | O=C(Nc1ccc(Br)cc1)C(=O)c1c(-c2cccnc2)cc2ccccn12 [Example 214, N-(4-Bromo-phenyl)-2-oxo-2-(2-pyridin-3-yl-indolizin-3-yl)-acetamide]
9 | 0.05 µg/mL (≈ 0.141 µM) | 0.05 µg/mL (≈ 0.141 µM) | 0.4 µg/mL (≈ 1.13 µM) | 0.8 µg/mL (≈ 2.25 µM) | 0.4 µg/mL (≈ 1.13 µM) | Cc1cccc(NC(=O)C(=O)c2c(-c3cccnc3)cc3ccccn23)c1 [Example 215, 2-Oxo-2-(2-pyridin-3-yl-indolizin-3-yl)-N-m-tolyl-acetamide]
10 | 0.2 µg/mL (≈ 0.532 µM) | 0.2 µg/mL (≈ 0.532 µM) | 0.4 µg/mL (≈ 1.06 µM) | 6.25 µg/mL (≈ 16.6 µM) | 6.25 µg/mL (≈ 16.6 µM) | O=C(Nc1ccccc1Cl)C(=O)c1c(-c2cccnc2)cc2ccccn12 [Example 216, N-(2-Chloro-phenyl)-2-oxo-2-(2-pyridin-3-yl-indolizin-3-yl)-acetamide]
11 | 0.05 µg/mL (≈ 0.116 µM) | 0.4 µg/mL (≈ 0.929 µM) | 3.1 µg/mL (≈ 7.2 µM) | 1.6 µg/mL (≈ 3.72 µM) | 1.6 µg/mL (≈ 3.72 µM) | COc1cc(NC(=O)C(=O)c2c(-c3ccccc3)cc3ccccn23)cc(OC)c1OC [Example 222, 2-Oxo-2-(2-phenyl-indolizin-3-yl)-N-(3,4,5-trimethoxy-phenyl)-acetamide]
12 | 0.05 µg/mL (≈ 0.122 µM) | 0.1 µg/mL (≈ 0.244 µM) | 0.2 µg/mL (≈ 0.487 µM) | 6.25 µg/mL (≈ 15.2 µM) | 6.25 µg/mL (≈ 15.2 µM) | O=C(Nc1ccc(Cl)cc1Cl)C(=O)c1c(-c2cccnc2)cc2ccccn12 [Example 224, N-(2,4-Dichloro-phenyl)-2-oxo-2-(2-pyridin-3-yl-indolizin-3-yl)-acetamide]
